Patent US20140162942A1, “INHIBITION OF CYP3A DRUG METABOLISM” (priority 2010, published 2014)
Where two headings read alike, the source gives them in different places.

Columns and labels:
Assay type in all cases: in vitro ADME
CYP2C9 = target: T1, CYP2C9 (Homo sapiens, UniProt P11712); assay: CYP2C9 inhibition, diclofenac 4′-hydroxylation in human liver microsomes; details: for Potential for Time-Dep. Inhibition: comparison with and without 30-minute pre-incubation
T1 construct: Pooled human liver microsomes (from sixteen individuals) were used as the source of enzymes; tissue XenoTech, LLC; host or cells: human liver microsomes, pool of sixteen donors
Experimental: (§1) The basis for many of the following incubation conditions is described in the following references: Madan, et al., 2002,^(1) Huang, 2004,^(3) Ogilvie, et al., 2006,^(6) Pearce, et al., 1996,^(7) Tucker, et al., 2001,^(4) and Walsky and Obach, 2004.^(5) In general, incubations were conducted at approximately 37° C. in 400-μL incubation mixtures (target pH 7.4) containing high purity water, potassium phosphate buffer (50 mM), MgCl2 (3 mM), EDTA (1 mM), an NADPH-generating system [always the mixture of the following: NADP (1 mM), glucose-6-phosphate (5 mM), glucose-6-phosphate dehydrogenase (1 Unit/mL)], and marker substrate at the final concentrations indicated. Pooled human liver microsomes (from sixteen individuals) were used as the source of enzymes (Section 1.3.1.2). The concentrations of marker substrates were based on the Km and Vmax data that were determined previously (data not shown).
(§2) Due to the possibility that boceprevir may bind to microsomal protein or lipids, an attempt was made to design these experiments such that, in as many cases as possible, the microsomal protein, incubation time, and phosphate buffer concentration were 0.1 mg/mL, 5 minutes and 50 mM, respectively, for assays performed with human liver microsomes (Table 1). […] Since it is not imperative that the concentration of marker substrates be exactly equal to Km, the marker substrate concentrations were rounded up or down, as applicable, to simplify the experimental design (data not shown). […] Thus, the final incubation concentration of phenacetin was 60 μM (Table 1).
(§3) The ability of boceprevir to inhibit the CYP enzymes listed in Section 1.2.1 was investigated with a pool of sixteen individual human liver microsomal samples at the concentrations indicated in Table 1. Aliquots of the stock and/or working solutions of boceprevir were manually added to buffer mixtures containing the components described in Section 1.3.21. Incubation mixtures were prepared in bulk to obviate the need for directly pipetting very small volumes (i.e., 1 μL or less). Incubations containing no boceprevir (0 μM) contained the vehicle used to dissolve boceprevir (i.e., 1% methanol).
(§4) The Tecan liquid handling system conducted all remaining incubation steps, with the exception of the centrifugation. Aliquots of the buffer mixtures were then automatically added to 96-well plates at the appropriate locations in duplicate. Aliquots of a substrate working solution were added to the 96-well plates, prior to initiating reactions, to give the final concentrations indicated in Table 1. Reactions were initiated with the addition of an aliquot of an NADPH-generating system. Reactions were automatically terminated at approximately 5 minutes, by the addition of the appropriate internal standard (Table 5) and stop reagent; acetonitrile. Precipitated protein was removed by centrifugation (920 g for 10 minutes at 10° C.). Standards and quality control samples were similarly prepared with the addition of authentic metabolite standards.
To examine its ability to act as a time-dependent inhibitor, boceprevir (at the same concentrations used to evaluate direct inhibition) was pre-incubated at 37±1° C., in duplicate, with human liver microsomes and an NADPH-generating system for approximately 30 minutes. This pre-incubation allowed for the generation of intermediates that could inhibit human CYP enzymes. The pre-incubations were initiated with the addition of an aliquot of an NADPH-generating system. […]

CYP2B6 = target: T2, CYP2B6 (Homo sapiens, UniProt P20813); assay: CYP2B6 inhibition, bupropion hydroxylation in human liver microsomes; details: for Potential for Time-Dep. Inhibition: comparison with and without 30-minute pre-incubation; for inhibition at 5 min, 100 µM: human, pH 7.4, probe bupropion (hydroxylation)
T2 construct: Pooled human liver microsomes (from sixteen individuals) were used as the source of enzymes; tissue XenoTech, LLC; host or cells: human liver microsomes, pool of sixteen donors
T2 sequence (P20813 1-491): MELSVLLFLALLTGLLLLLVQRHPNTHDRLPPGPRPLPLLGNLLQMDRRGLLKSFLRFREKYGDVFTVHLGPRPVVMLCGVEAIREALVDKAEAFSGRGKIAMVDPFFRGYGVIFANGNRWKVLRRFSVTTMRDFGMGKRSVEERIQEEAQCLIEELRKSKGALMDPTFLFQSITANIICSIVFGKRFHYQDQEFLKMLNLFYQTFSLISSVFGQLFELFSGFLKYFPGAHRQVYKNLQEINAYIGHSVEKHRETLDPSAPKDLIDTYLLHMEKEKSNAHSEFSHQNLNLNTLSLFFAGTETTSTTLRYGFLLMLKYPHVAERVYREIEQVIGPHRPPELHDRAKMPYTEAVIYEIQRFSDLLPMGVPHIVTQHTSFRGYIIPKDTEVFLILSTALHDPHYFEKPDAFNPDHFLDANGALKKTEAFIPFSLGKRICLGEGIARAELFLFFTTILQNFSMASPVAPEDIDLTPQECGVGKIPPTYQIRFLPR
Experimental: as §1, §2, §3, §4
To examine its ability to act as a time-dependent inhibitor, boceprevir (at the same concentrations used to evaluate direct inhibition) was pre-incubated at 37±1° C., in duplicate, with human liver microsomes and an NADPH-generating system for approximately 30 minutes. This pre-incubation allowed for the generation of intermediates that could inhibit human CYP enzymes. The pre-incubations were initiated with the addition of an aliquot of an NADPH-generating system. […] Reactions were automatically terminated, at approximately 5 minutes, by the addition of the appropriate internal standard (Table 5) and stop reagent; acetonitrile. Precipitated protein was removed by centrifugation (920 g for 10 minutes at 10° C.). Incubations containing no boceprevir (0 μM) and incubations that contained boceprevir but were not pre-incubated, served as negative controls.

CYP3A4/5 = assay: Metabolite inhibitory complex (MIC) formation, human liver microsomes with high CYP3A4/5 activity; details: 3 μM, scans 380-520 nm for 15 minutes
Experimental: In an attempt to determine the mechanism in which boceprevir inactivated CYP3A4/5, an experiment was conducted to determine if boceprevir formed a spectrophotometrically detectable metabolite inhibitory complex with cytochrome P450 (i.e., peaks at approximately 452 nm).
In this experiment (summarized in Table 4), an individual human liver microsomal sample containing high levels of CYP3A4/5 activity (final protein concentration of 1 mg/mL, 1.7 nmol P450/mg protein) was added to the sample and reference cuvettes in a buffer mixture consisting of potassium phosphate (50 mM), and MgCl2 (3 mM) for a final volume of 980 μL. Baseline scans from 380 to 520 nm were recorded on a Varian Cary 100 BIO UV/Vis dual beam spectrophotometer. Boceprevir was then added to the sample cuvette in 10 μL of methanol for a final incubation concentration of 3 μM. A corresponding volume of the solvent (10 μL of methanol), used to dissolve boceprevir, was added to the reference. The reactions were initiated with 10 μL of β-NADPH added to both cuvettes to give a final volume of 1 mL. Continuous scans were conducted every minute for 15 minutes after the addition of β-NADPH. All scans were conducted at approximately 37° C. […]

[1] = direct inhibition, zero-minute pre-incubation, pooled human liver microsomes
[2] = time-dependent inhibition, 30-minute pre-incubation

T1 sequence (P11712 whole entry): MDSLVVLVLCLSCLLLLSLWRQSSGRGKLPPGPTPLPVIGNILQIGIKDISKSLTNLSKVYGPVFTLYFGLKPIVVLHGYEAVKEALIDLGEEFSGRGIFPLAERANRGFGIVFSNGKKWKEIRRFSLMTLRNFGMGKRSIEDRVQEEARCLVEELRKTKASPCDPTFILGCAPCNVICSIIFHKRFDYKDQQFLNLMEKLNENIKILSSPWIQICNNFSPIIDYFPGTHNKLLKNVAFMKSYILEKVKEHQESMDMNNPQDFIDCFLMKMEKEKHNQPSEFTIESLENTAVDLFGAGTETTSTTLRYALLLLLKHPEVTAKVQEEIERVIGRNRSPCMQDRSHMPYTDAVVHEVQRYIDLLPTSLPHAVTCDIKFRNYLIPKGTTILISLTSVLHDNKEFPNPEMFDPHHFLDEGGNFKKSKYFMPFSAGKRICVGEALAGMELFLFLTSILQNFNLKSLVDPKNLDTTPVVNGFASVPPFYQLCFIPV

CC(C)(C)NC(=O)NC(C(=O)N1CC2C([C@H]1C(=O)NC(CC1CCC1)C(=O)C(N)=O)C2(C)C)C(C)(C)C (stereo partly drawn) [Boceprevir, (1R,2S,5S)—N-[(2Ξ)-4-amino-1-cyclobutyl-3,4-dioxobutan-2-yl]-3-{(2S)-2-[(tert-butylcarbamoyl)amino]-3,3-dimethylbutanoyl}-6,6-dimethyl-3-azabicyclo[3.1.0]hexane-2-carboxamide]
Potential for Time-Dep. Inhibition (CYP2C9): little or no
Potential for Time-Dep. Inhibition (CYP2C9; listed as boceprevir): no discernable time-dependent inhibition
IC50 (CYP2C9; [1]): > 100 µM
inhibition at 5 min, 100 µM (CYP2C9; human, pooled human liver microsomes, pH 7.4, probe diclofenac (4′-hydroxylation), direct inhibition, zero-minute pre-incubation, read-out: Max. Inhib. at 100 μM): 3.6%
IC50 (CYP2C9; [2]): > 100 µM
Potential for Time-Dep. Inhibition (CYP2B6): little or no
Potential for Time-Dep. Inhibition (CYP2B6; listed as boceprevir): no discernable time-dependent inhibition
IC50 (CYP2B6; [1]): > 100 µM
inhibition at 5 min, 100 µM (CYP2B6; pooled human liver microsomes, direct inhibition, zero-minute pre-incubation, read-out: Max. Inhib. at 100 μM): 2.3%
inhibition at 5 min, 100 µM (CYP2B6; pooled human liver microsomes, time-dependent inhibition, 30-minute pre-incubation, read-out: Maximum Inhibition at 100 μM): 6.9%
IC50 (CYP2B6; [2]): > 100 µM
Formation of a spectrally visible metabolite inhibitory complex (MIC) (CYP3A4/5): did not appear to form a spectrally visible MIC
